Assay results as given in patent US10414756B2, “2-(2,4,5-substituted aniline) pyrimidine derivative, pharmaceutical composition and use thereof” (Nanjing Diansu Biological Technology Co., Ltd., priority 2014, dated 2019).
Structures can show the parent of a compound that is named as a salt.

Columns and labels:
[1] = tested on: NCI-H1975; assay: Test 5: effect in nude mice implanted with NCI-H1975; assay type: in vivo
Description: Test 5: Effect Assess in Nude Mice Implanted with NCI-H1975
To nude mice implanted with NCI-H1975, was administered 3.6 μgig (compound/nude mice weight) once a day in one group, and 7.2 μgig once a day in another group, and the tumor size was observed after continuous administration for 10 days.

[2] = Test 4: stability of compounds in human liver microsomes; assay type: in vitro ADME; conditions: for Remaining Percentage (%) 0 h / Remaining Percentage (%) 8 h / Remaining Percentage (%) 16 h / Remaining Percentage (%) 24 h / Remaining Percentage (%) 32 h / Remaining Percentage (%) 48 h: 0.5 mg/mL liver microsomal protein, 1 mM NADPH, 37° C., N=1; for Half-time period: human liver microsomes
Description: Test 4: Evaluation of Stability of Compounds in Human Liver Microsomes
Assay system: the metabolic stability of the compounds in the present invention were determined by employing a mixture of male and female liver microsomes (Jiangyin Qi Biotechnology Co., Ltd.) and 1 mM NADPH. Samples were analyzed by a mass spectrometer. HRMS was used to determine the peak area response ratio (corresponding to the peak area of the compound to be tested or control compound being divided by the peak area of the internal standard) without running the standard curve. In order to detect all possible metabolites, HRMS scan were performed within an appropriate m/z range.
Determination condition: the assay was performed with one time incubation (N=1). The compounds to be tested were incubated at 37° C. in a PBS buffer containing 0.5 mg/mL liver microsomal protein.
Determination quality control: compare the testosterone of control compound in parallel to determine the enzyme […] of (liver) microsomes. After the last time point, […]
Aqueous phase (A): 90% water, 10% buffer;
Organic phase (B): 90% acetonitrile, 10% buffer;
Autosampler: injection volume 10 μL

[3] = Effect Embodiment 2: rat pharmacokinetics after intragastric administration; assay type: in vivo, SD rats; conditions: rats, 25 mg/kg intragastric, n=6, compared with AZD9291
Text: 2.1. Grouping of Experimental Animals:
24 SD rats were half male and half female, randomly divided into 4 groups, 6 rats in each group, half male and half female
1-3 male, NO. […] 7-9 male, NO. 10-12 female
2.2. Experimental Reagents and Administration Modes
Intragastric Administration:
2. grouping and weighing rats;
4. the blood samples were centrifuged, supernatant was extracted, treated, and analyzed.

[4] = Dose 3.6 μg/g once a day for 10 days
[5] = Dose 7.2 μg/g once a day for 10 days

| Remaining Percentage (%) 0 h [2] [%] | Remaining Percentage (%) 8 h [2] [%] | Remaining Percentage (%) 16 h [2] [%] | Remaining Percentage (%) 24 h [2] [%] | Remaining Percentage (%) 32 h [2] [%] | Remaining Percentage (%) 48 h [2] [%] | Half-time period [2] [h] | Structure (SMILES) | tumor size 11th d [1, 4] [mm] | tumor size 0 d ([1]; Dose 3.6 μg/g once a day) [mm] | tumor size 11th d [1, 5] [mm] | tumor size 0 d ([1]; Dose 7.2 μg/g once a day) [mm] | inhibitory effect on tumor growth ([1]; low dose (3.6 μg/g)) | pharmacokinetics (mean drug concentration-time curve, FIG. 2) [3] |
| --- | --- | --- | --- | --- | --- | --- | --- | --- | --- | --- | --- | --- | --- |
| 100 | 93 | 86 | 77 | 70 | 67 | >48 | [2H]C([2H])([2H])N(C)CCN(C)c1cc(OC)c(Nc2nccc(-c3cn(C)c4ccccc34)n2)cc1NC(=O)C=C [Embodiment 1B, N-(2-{2-[methyl(D3-methyl)amino]ethyl-methylamino}-4-methoxy-5-{[4-(1-methylindol-3-yl)pyrimidin-2-yl]amino}phenyl)-2-acrylamide mesylate] | 6 | 12 | 5 | 13 |  |  |
| 100 | 97 | 90 | 82 | 75 | 81 | >48 | [2H]C([2H])([2H])N(CCN(C)c1cc(OC)c(Nc2nccc(-c3cn(C)c4ccccc34)n2)cc1NC(=O)C=C)C([2H])([2H])[2H] [Embodiment 2B, N-(2-{2-di(D3-methyl)aminoethyl-methylamino}-4-methoxy-5-{[4-(1-methylindol-3-yl)pyrimidin-2-yl]amino}phenyl)-2-acrylamide mesylate] | 5 | 12 | 4 | 12 |  |  |
| 100 | 89 | 81 | 72 | 63 | 51 | >48 | [2H]C([2H])([2H])Oc1cc(N(C)CCN(C)C)c(NC(=O)C=C)cc1Nc1nccc(-c2cn(C)c3ccccc23)n1 [Embodiment 4B, N-(2-{2-dimethylaminoethyl-methylamino}-4-(D3-methoxy)-5-{[4-(1-methylindol-3-yl)pyrimidin-2-yl]amino}phenyl)-2-acrylamide mesylate] | 8 | 13 | 6 | 11 |  |  |
| 100 | 91 | 84 | 75 | 69 | 66 | >48 | [2H]C([2H])([2H])N(CCN(C)C)c1cc(OC)c(Nc2nccc(-c3cn(C)c4ccccc34)n2)cc1NC(=O)C=C [Embodiment 5B, N-(2-{2-dimethylaminoethyl-(D3-methyl)amino}-4-methoxy-5-{[4-(1-methylindol-3-yl)pyrimidin-2-yl]amino}phenyl)-2-acrylamide mesylate] | 10 | 11 | 8 | 14 |  |  |
| 100 | 92 | 80 | 76 | 65 | 58 | >48 | [2H]C([2H])([2H])N(CCN(C)c1cc(OC)c(Nc2nccc(-c3cn(C([2H])([2H])[2H])c4ccccc34)n2)cc1NC(=O)C=C)C([2H])([2H])[2H] [Embodiment 6B, N-(2-{2-di(D3-methyl)aminoethyl-methylamino}-4-methoxy-5-{[4-(1-(D3-methyl)indol-3-yl)pyrimidin-2-yl]amino}phenyl)-2-acrylamide mesylate] |  |  |  |  |  |  |

| Structure (SMILES) | Remaining Percentage (%) 0 h [2] [%] | Remaining Percentage (%) 8 h [2] [%] | Remaining Percentage (%) 16 h [2] [%] | Remaining Percentage (%) 24 h [2] [%] | Remaining Percentage (%) 32 h [2] [%] | Remaining Percentage (%) 48 h [2] [%] | Half-time period [2] [h] | tumor size 11th d [1, 4] [mm] | tumor size 0 d ([1]; Dose 3.6 μg/g once a day) [mm] | tumor size 11th d [1, 5] [mm] | tumor size 0 d ([1]; Dose 7.2 μg/g once a day) [mm] | inhibitory effect on tumor growth ([1]; low dose (3.6 μg/g)) | pharmacokinetics (mean drug concentration-time curve, FIG. 2) [3] |
| --- | --- | --- | --- | --- | --- | --- | --- | --- | --- | --- | --- | --- | --- |
| C=CC(=O)Nc1cc(Nc2nccc(-c3cn(C)c4ccccc34)n2)c(OC)cc1N(C)CCN(C)C.CS(=O)(=O)O [AZD9291, reference compound] | 100 | 82 | 61 | 48 | 34 | 14 | 24 | 13 | 13 | 8 | 12 | very low inhibitory effect on tumor growth |  |
| [2H]C([2H])([2H])n1cc(-c2ccnc(Nc3cc(NC(=O)C=C)c(N(C)CCN(C)C)cc3OC)n2)c2ccccc21 [Embodiment 3B, N-(2-{2-dimethylaminoethyl-methylamino}-4-methoxy-5-{[4-(1-D3-methyl)indol-3-yl)pyrimidin-2-yl]amino}phenyl)-2-acrylamide mesylate] | 100 | 90 | 82 | 73 | 64 | 55 | >48 | 9 | 14 | 7 | 13 |  | better pharmacokinetics |
